The NIST ThermoML archive (doi:10.1021/acs.jced.8b00372)

Assay: mn = molality of the nth substance listed, in mol/kg
Details: for electrical conductivity: 100 kPa, Liquid, Frequency=0.002 MHz, Alternating current cell with electrodes; for surface tension liquid-gas: Ring tensiometer

CCCCCCCCCCCCCCCC[n+]1ccn(C)c1.[Cl-] [1-hexadecyl-3-methylimidazolium chloride] + O
Details | electrical conductivity, 303.15 K [S/m] | electrical conductivity, 313.15 K [S/m] | electrical conductivity, 323.15 K [S/m] | surface tension liquid-gas, 313.15 K [mN/m]
m1 = 1.3e-05 | – | – | – | 57.9
m1 = 4.4e-05 | – | – | – | 56.4
m1 = 0.00011 | 0.00121 | 0.00152 | 0.00171 | –
m1 = 0.000146 | – | – | – | 53.2
m1 = 0.00022 | 0.00234 | 0.00295 | 0.00334 | –
m1 = 0.000247 | – | – | – | 50.1
m1 = 0.00033 | 0.00341 | 0.00432 | 0.00491 | –
m1 = 0.00043 | 0.00444 | 0.0056 | 0.0064 | –
m1 = 0.000435 | – | – | – | 46.4
m1 = 0.00052 | 0.00541 | 0.00686 | 0.00791 | –
m1 = 0.00062 | 0.00636 | 0.00803 | 0.00929 | –
m1 = 0.00071 | 0.00726 | 0.00918 | 0.0106 | –
m1 = 0.000734 | – | – | – | 39.2
m1 = 0.00079 | 0.00809 | 0.0102 | 0.0119 | –
m1 = 0.00088 | 0.0088 | 0.0112 | 0.0133 | –
m1 = 0.00096 | 0.00933 | 0.0119 | 0.0143 | –
m1 = 0.00104 | 0.00977 | 0.0125 | 0.0153 | –
m1 = 0.00112 | 0.0102 | 0.0131 | 0.0161 | –
m1 = 0.00119 | 0.0106 | 0.0136 | 0.0168 | –
m1 = 0.00126 | 0.0109 | 0.0141 | 0.0175 | –
m1 = 0.00127 | – | – | – | 38.8
m1 = 0.00133 | 0.0112 | 0.0145 | 0.0181 | –
m1 = 0.00139 | 0.0115 | 0.0149 | 0.0186 | –
m1 = 0.00146 | 0.0118 | 0.0154 | 0.0192 | –
m1 = 0.00153 | 0.0121 | 0.0157 | 0.0197 | –
m1 = 0.002558 | – | – | – | 38.8
m1 = 0.00525 | – | – | – | 38.1
